Like-named read-outs stand apart in the source and are kept apart here.
How the values were obtained:
[1] = target: T1, ALK protein (Homo sapiens, UniProt Q9UM73); experiment: Western-blot half degradation concentration (DC50) of ALK protein in SR cells; format: cell-based; settings: 24 h drug treatment; for DC50: read-out: DC50 (nM)/ SR cell line
Experimental: (§1) ALK-positive SR cells (human large cell immunoblastic lymphoma) were purchased from the American Type Culture Collection (ATCC); H3122 cells (human non-small cell lung cancer) were from the Shanghai University of Science and Technology Lin Haifan's research group.
(§2) The cells used in this present disclosure were cultured in a 37° C. incubator containing 5% CO2.
(§3) DC50 (drug concentration corresponding to protein degradation to 50%) calculation: according to the gray value of the corresponding Western blotting band after drug treatment, fitting the relationship curve between drug concentration and gray value to calculate the drug concentration range corresponding to half of the gray value.
Target sequence in this assay (Q9UM73 with tags, fused parts or gaps): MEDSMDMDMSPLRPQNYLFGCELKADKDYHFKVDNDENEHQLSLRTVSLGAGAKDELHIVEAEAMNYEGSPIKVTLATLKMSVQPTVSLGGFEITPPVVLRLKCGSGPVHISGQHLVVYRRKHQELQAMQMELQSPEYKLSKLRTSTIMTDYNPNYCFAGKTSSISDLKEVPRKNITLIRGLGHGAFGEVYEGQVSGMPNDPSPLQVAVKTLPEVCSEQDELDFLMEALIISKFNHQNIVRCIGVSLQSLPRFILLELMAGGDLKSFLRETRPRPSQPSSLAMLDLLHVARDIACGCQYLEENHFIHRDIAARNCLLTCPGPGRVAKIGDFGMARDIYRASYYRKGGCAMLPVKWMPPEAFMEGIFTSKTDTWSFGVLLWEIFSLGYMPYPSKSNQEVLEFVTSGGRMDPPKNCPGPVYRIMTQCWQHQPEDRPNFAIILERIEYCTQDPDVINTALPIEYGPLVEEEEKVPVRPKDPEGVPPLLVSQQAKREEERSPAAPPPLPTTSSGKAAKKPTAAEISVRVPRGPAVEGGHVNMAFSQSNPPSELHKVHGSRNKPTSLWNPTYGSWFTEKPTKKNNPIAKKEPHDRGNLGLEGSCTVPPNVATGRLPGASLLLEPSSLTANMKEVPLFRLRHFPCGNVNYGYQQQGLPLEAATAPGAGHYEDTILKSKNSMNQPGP

[2] = target: T1, ALK protein; experiment: Western-blot half degradation concentration (DC50) of ALK protein in H3122 cells; format: cell-based; settings: 24 h drug treatment, read-out: DC50 (nM)/ H3122 cell line
Experimental: as §1, §2, §3
Target sequence in this assay (Q9UM73 with tags, fused parts or gaps): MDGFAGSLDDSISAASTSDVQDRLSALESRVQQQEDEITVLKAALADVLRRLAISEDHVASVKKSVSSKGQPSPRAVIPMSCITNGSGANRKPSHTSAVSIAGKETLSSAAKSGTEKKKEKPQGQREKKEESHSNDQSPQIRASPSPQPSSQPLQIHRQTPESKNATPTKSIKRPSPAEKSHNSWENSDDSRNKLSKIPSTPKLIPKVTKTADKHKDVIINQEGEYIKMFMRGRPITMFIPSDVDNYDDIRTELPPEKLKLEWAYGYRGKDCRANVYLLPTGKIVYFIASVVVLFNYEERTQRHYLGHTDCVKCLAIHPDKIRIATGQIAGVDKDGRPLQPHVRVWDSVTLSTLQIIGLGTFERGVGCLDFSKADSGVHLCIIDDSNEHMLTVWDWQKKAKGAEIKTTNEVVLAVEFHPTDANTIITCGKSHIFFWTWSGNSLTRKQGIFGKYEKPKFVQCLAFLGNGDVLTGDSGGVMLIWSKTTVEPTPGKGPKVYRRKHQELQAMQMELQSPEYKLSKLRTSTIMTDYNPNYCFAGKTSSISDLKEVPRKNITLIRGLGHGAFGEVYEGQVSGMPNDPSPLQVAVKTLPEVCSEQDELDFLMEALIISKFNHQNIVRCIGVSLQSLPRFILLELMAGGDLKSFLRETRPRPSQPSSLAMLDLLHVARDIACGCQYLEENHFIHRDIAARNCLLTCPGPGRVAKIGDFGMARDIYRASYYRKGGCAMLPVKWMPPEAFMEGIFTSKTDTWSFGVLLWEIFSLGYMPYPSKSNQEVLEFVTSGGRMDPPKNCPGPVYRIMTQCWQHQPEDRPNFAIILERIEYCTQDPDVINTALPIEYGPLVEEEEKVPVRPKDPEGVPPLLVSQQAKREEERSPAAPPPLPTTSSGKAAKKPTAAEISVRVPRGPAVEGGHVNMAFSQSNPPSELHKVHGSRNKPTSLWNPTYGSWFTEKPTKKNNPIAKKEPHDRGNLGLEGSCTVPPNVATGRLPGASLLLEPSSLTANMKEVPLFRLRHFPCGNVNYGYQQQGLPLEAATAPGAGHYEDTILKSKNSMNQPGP

[3] = system: SR cells; experiment: Half inhibitory concentration (IC50) on ALK-positive SR cell proliferation (CCK-8); format: cell-based; settings: Homo sapiens; SR cells, 72 h drug treatment, CCK-8; read-out: IC50 (nM)/ SR cell line
Method in brief: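 SR cells seeded at 10,000 cells/well in RPMI1640 and treated with PROTAD compounds at 10 concentrations (top 10 μM, 5-fold dilutions) for 72 h at 37° C, 5% CO2. Viability read by CCK-8 (2 h) at OD450; DMSO as negative control.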

[4] = system: MDA-MB-231 cells; experiment: Half inhibitory concentration (IC50) on BET-expressing tumor cells, CCK-8, MDA-MB-231; format: cell-based; settings: Homo sapiens, 48/72 h, read-out: IC50 (nM)/MDA-MB-231 cell line
Experimental: (§4) BET-expressing cells MV-4-11 cells (human B granulocytic leukemia cells), MDA-MB-231 cells (human breast cancer cells), MDA-MB-468 cells (human breast cancer cells), MDA-MB-453 Cells (human breast cancer cells), MM1S cells (myeloma (immunoglobulin A lambda), B lymphoblasts) and SR cells (human large cell immunoblast lymphoma) were purchased from the American Type Culture Collection (ATCC).
(§5) The cells used in this present disclosure were cultured in a 37° C. incubator containing 5% CO2. The complete cell culture medium was RPMI 1640/IMDM/DMEM medium with 10% fetal bovine serum, and the final concentrations of penicillin and streptomycin were 100 U/mL, respectively. All cells were tested negative for mycoplasma with mycoplasma detection kit before the experiment.
(§6) Determination of the Half Inhibitory Concentration (IC50) of PROTAD Compounds on Tumor Cells
(§7) MV-411 cells, MM1S cells and SR cells were seeded in 100 μL IMDM/RPMI1640/DMEM complete medium at a density of 15000/10000 cells/well; MDA-MB-231 cells, MDA-MB-468 cells, and MDA-MB453 cells were seeded in 100 μL IMDM/RPMI1640/DMEM complete medium at a density of 3000/5000 cells/well, respectively. 100 μL of the inoculated cells were treated with 0.5 μL diluted PROTAD compounds of the present disclosure to be tested at 10 successively decreasing concentrations (starting at the highest concentration of 10 μM; 5-fold serial dilutions). After the cells were treated with the tested drugs 48/72 h, the cell viability was determined according to the CCK-8 reagent manual. The negative control was DMSO, and the positive control was a commercial inhibitor. After CCK-8 treatment for 2 h, the value of O.D.450 was measured using a microplate reader.

[5] = system: MV-4-11 cells; experiment: Half inhibitory concentration (IC50) on BET-expressing tumor cells, CCK-8, MV-4-11; settings: Homo sapiens, MV4-11, read-out: IC50 (nM)/MV-4-11 cell line, MV-4-11 cells, 48/72 h, CCK-8
[6] = system: MM1S cells; experiment: Half inhibitory concentration (IC50) on BET-expressing tumor cells, CCK-8, MM1S; format: cell-based; settings: Homo sapiens, MM1.S, 48/72 h, read-out: IC50 (nM)/MM1S cell line
Experimental: as §4, §5, §6, §7

[7] = system: MDA-MB-453 cells; experiment: Half inhibitory concentration (IC50) on BET-expressing tumor cells, CCK-8, MDA-MB-453; format: cell-based, human; settings: 48/72 h, read-out: IC50 (nM)/MDA-MB-453 cell line
Experimental: as §4, §5, §6, §7

[8] = system: MDA-MB-468 cells; experiment: Half inhibitory concentration (IC50) on BET-expressing tumor cells, CCK-8, MDA-MB-468; format: cell-based; settings: Homo sapiens, 48/72 h, read-out: IC50 (nM)/MDA-MB-468 cell line
Experimental: as §4, §5, §6, §7

[9] = Homo sapiens, MDA-MB-453, MDA-MB-453 cells

SMILES | DC50 [1] [nM] | DC50 [2] [nM] | IC50 [3] [nM] | further results
COc1cc(N2CCC(NC(=O)CCCCCSc3cccc4c3C(=O)N(C3CCC(=O)NC3=O)C4=O)CC2)ccc1Nc1ncc(Cl)c(Nc2ccccc2P(C)(C)=O)n1 (stereo not drawn) [SIAIS164141, N-(1-(4-((5-chloro-4-((2-(dimethylphosphoryl)phenyl)amino)pyrimidin-2-yl)amino)-3-methoxyphenyl)piperidin-4-yl)-6-((2-(2,6-dioxopiperidin-3-yl)-1,3-dioxoisoindolin-4-yl)thio)hexanamide] | 1 to 50 | 50 | 3.2 ± 2.4 | –
Cc1sc2c(c1C)C(c1ccc(Cl)cc1)=N[C@@H](CC(=O)NCCCCCCCSc1cccc3c1CN(C1CCC(=O)NC1=O)C3=O)c1nnc(C)n1-2 (stereo partly drawn) [SIAIS171144, 2-((S)-4-(4-chlorophenyl)-2,3,9-trimethyl-6H-thieno[3,2-f][1,2,4]triazolo[4,3-a][1,4]diazepin-6-yl)-N-(7-((2-(2,6-dioxopiperidin-3-yl)-1-oxoisoindolin-4-yl)thio)heptyl)acetamide] | – | – | – | IC50 [4]: 55 ± 31 nM; IC50 [5]: 0.9 ± 0.8 nM; IC50 [6]: 0.7 nM; IC50 [7, 9]: 52.3 nM; IC50 ([7]; MDA-MB-453 cells): 63.9 nM; IC50 [8]: 9.6 ± 2.9 nM
Cc1sc2c(c1C)C(c1ccc(Cl)cc1)=N[C@@H](CC(=O)NCCCCCCSc1cccc3c1C(=O)N(C1CCC(=O)NC1=O)C3=O)c1nnc(C)n1-2 (stereo partly drawn) [SIAIS171039, 2-((S)-4-(4-chlorophenyl)-2,3,9-trimethyl-6H-thieno[3,2-f][1,2,4]triazolo[4,3-a][1,4]diazepin-6-yl)-N-(6-((2-(2,6-dioxopiperidin-3-yl)-1,3-dioxoisoindolin-4-yl)thio)hexyl)acetamide] | – | – | – | IC50 [4]: 98 ± 82 nM; IC50 [5]: 2.7 ± 2.5 nM; IC50 [6]: 0.82 nM; IC50 [7, 9]: 167 nM; IC50 ([7]; MDA-MB-453 cells): 162 nM; IC50 [8]: 92 ± 43 nM
COc1cc(N2CCN(C(=O)CCCCCSc3cccc4c3C(=O)N(C3CCC(=O)NC3=O)C4=O)CC2)ccc1Nc1ncc(Cl)c(Nc2ccccc2P(C)(C)=O)n1 (stereo not drawn) [SIAIS1197121, 4-((6-(4-(4-((5-chloro-4-((2-(dimethylphosphoryl)phenyl)amino)pyrimidin-2-yl)amino)-3-methoxyphenyl)piperazin-1-yl)-6-oxohexyl)thio)-2-(2,6-dioxopiperidin-3-yl)isoindoline-1,3-dione] | 50 to 500 | 500 | 7.4 ± 4.8 | –
COc1cc(N2CCC(N3CCN(C(=O)CCCCCCSc4cccc5c4C(=O)N(C4CCC(=O)NC4=O)C5=O)CC3)CC2)ccc1Nc1ncc(Cl)c(Nc2ccccc2P(C)(C)=O)n1 (stereo not drawn) [SIAIS164067, 4-((7-(4-(1-(4-((5-chloro-4-((2-(dimethylphosphoryl)phenyl)amino)pyrimidin-2-yl)amino)-3-methoxyphenyl)piperidin-4-yl)piperazin-1-yl)-7-oxoheptyl)thio)-2-(2,6-dioxopiperidin-3-yl)isoindoline-1,3-dione] | 4.1 | 11 | 5.7 ± 3.9 | –
COc1cc(N2CCC(N3CCN(C(=O)CCCCSc4cccc5c4C(=O)N(C4CCC(=O)NC4=O)C5=O)CC3)CC2)ccc1Nc1ncc(Cl)c(Nc2ccccc2P(C)(C)=O)n1 (stereo not drawn) [SIAIS164066, 4-((5-(4-(1-(4-((5-chloro-4-((2-(dimethylphosphoryl)phenyl)amino)pyrimidin-2-yl)amino)-3-methoxyphenyl)piperidin-4-yl)piperazin-1-yl)-5-oxopentyl)thio)-2-(2,6-dioxopiperidin-3-yl)isoindoline-1,3-dione] | 5.6 | 11 | 4.2 ± 2.9 | –
COc1cc(N2CCC(N3CCN(C(=O)CSc4cccc5c4C(=O)N(C4CCC(=O)NC4=O)C5=O)CC3)CC2)ccc1Nc1ncc(Cl)c(Nc2ccccc2P(C)(C)=O)n1 (stereo not drawn) [SIAIS164062, 4-((2-(4-(1-(4-((5-chloro-4-((2-(dimethylphosphoryl)phenyl)amino)pyrimidin-2-yl)amino)-3-methoxyphenyl)piperidin-4-yl)piperazin-1-yl)-2-oxoethyl)thio)-2-(2,6-dioxopiperidin-3-yl)isoindoline-1,3-dione] | 6 | 13 | 11.6 ± 6.2 | –
COc1cc(N2CCC(N3CCN(C(=O)CCCCCSc4cccc5c4CN(C4CCC(=O)NC4=O)C5=O)CC3)CC2)ccc1Nc1ncc(Cl)c(Nc2ccccc2P(C)(C)=O)n1 (stereo not drawn) [SIAIS219071, 3-(4-((6-(4-(1-(4-((5-chloro-4-((2-(dimethylphosphoryl)phenyl)amino)pyrimidin-2-yl)amino)-3-methoxyphenyl)piperidin-4-yl)piperazin-1-yl)-6-oxohexyl)thio)-1-oxoisoindolin-2-yl)piperidine-2,6-dione] | – | – | 0.6 ± 0.4 | DC50 (nM)/ SR cell line [1]: 0.01~10 nM

More lines, main results first:

DC50 [1] [nM] | DC50 [2] [nM] | SMILES | IC50 [3] [nM] | further results
500 | 500 | COc1cc(N2CCC(N3CCN(C(=O)CCSc4cccc5c4C(=O)N(C4CCC(=O)NC4=O)C5=O)CC3)CC2)ccc1Nc1ncc(Cl)c(Nc2ccccc2P(C)(C)=O)n1 (stereo not drawn) [SIAIS164063, 4-((3-(4-(1-(4-((5-chloro-4-((2-(dimethylphosphoryl)phenyl)amino)pyrimidin-2-yl)amino)-3-methoxyphenyl)piperidin-4-yl)piperazin-1-yl)-3-oxopropyl)thio)-2-(2,6-dioxopiperidin-3-yl)isoindoline-1,3-dione] | 15.7 ± 9.8 | –
1.1 | 49 | COc1cc(N2CCC(N3CCN(C(=O)CCCSc4cccc5c4C(=O)N(C4CCC(=O)NC4=O)C5=O)CC3)CC2)ccc1Nc1ncc(Cl)c(Nc2ccccc2P(C)(C)=O)n1 (stereo not drawn) [SIAIS164064, 4-((4-(4-(1-(4-((5-chloro-4-((2-(dimethylphosphoryl)phenyl)amino)pyrimidin-2-yl)amino)-3-methoxyphenyl)piperidin-4-yl)piperazin-1-yl)-4-oxobutyl)thio)-2-(2,6-dioxopiperidin-3-yl)isoindoline-1,3-dione] | 4.4 ± 2.5 | –
5.2 | 173 | COc1cc(N2CCC(N3CCN(C(=O)CCCCCSc4cccc5c4C(=O)N(C4CCC(=O)NC4=O)C5=O)CC3)CC2)ccc1Nc1ncc(Cl)c(Nc2ccccc2P(C)(C)=O)n1 (stereo not drawn) [SIAIS164065, 4-((6-(4-(1-(4-((5-chloro-4-((2-(dimethylphosphoryl)phenyl)amino)pyrimidin-2-yl)amino)-3-methoxyphenyl)piperidin-4-yl)piperazin-1-yl)-6-oxohexyl)thio)-2-(2,6-dioxopiperidin-3-yl)isoindoline-1,3-dione] | 2.9 ± 2.7 | –
1 to 10 | – | COc1cc(N2CCC(N3CCN(C(=O)CCSc4cccc5c4CN(C4CCC(=O)NC4=O)C5=O)CC3)CC2)ccc1Nc1ncc(Cl)c(Nc2ccccc2P(C)(C)=O)n1 (stereo not drawn) [SIAIS219068, 3-(4-((3-(4-(1-(4-((5-chloro-4-((2-(dimethylphosphoryl)phenyl)amino)pyrimidin-2-yl)amino)-3-methoxyphenyl)piperidin-4-yl)piperazin-1-yl)-3-oxopropyl)thio)-1-oxoisoindolin-2-yl)piperidine-2,6-dione] | 1.7 ± 0.8 | –
0.1 to 1 | – | COc1cc(N2CCC(N3CCN(CCCCCCSc4cccc5c4CN(C4CCC(=O)NC4=O)C5=O)CC3)CC2)ccc1Nc1ncc(Cl)c(Nc2ccccc2P(C)(C)=O)n1 (stereo not drawn) [SIAIS219098, 3-(4-((6-(4-(1-(4-((5-chloro-4-((2-(dimethylphosphoryl)phenyl)amino)pyrimidin-2-yl)amino)-3-methoxyphenyl)piperidin-4-yl)piperazin-1-yl)hexyl)thio)-1-oxoisoindolin-2-yl)piperidine-2,6-dione] | 0.7 ± 0.2 | –

From patent publication US12226424B2, “Target protein degradation compounds, their anti-tumor use, their intermediates and use of intermediates” (ShanghaiTech University, priority 2018, dated 2025)
